Patent EP0509769B1, “Heterocyclic amides having HLE inhibiting activity” (ZENECA LIMITED, priority 1991, dated 1992)

Columns and labels:
[1] = in vivo test (not specified further)
[2] = molecular target: T1, human neutrophil elastase (HNE) (Homo sapiens, UniProt P08246); assay: Acute Hemorrhagic Assay: lung hemorrhage in hamsters after intratracheal HNE; assay type: in vivo, hamster; conditions: dose of 5 mg/kg by mouth, 30 min prior to administration of HNE; male Syrian hamsters
T1 construct: host or cells: exogenous human enzyme instilled into the trachea of male Syrian hamsters
T1 sequence (P08246 30-267): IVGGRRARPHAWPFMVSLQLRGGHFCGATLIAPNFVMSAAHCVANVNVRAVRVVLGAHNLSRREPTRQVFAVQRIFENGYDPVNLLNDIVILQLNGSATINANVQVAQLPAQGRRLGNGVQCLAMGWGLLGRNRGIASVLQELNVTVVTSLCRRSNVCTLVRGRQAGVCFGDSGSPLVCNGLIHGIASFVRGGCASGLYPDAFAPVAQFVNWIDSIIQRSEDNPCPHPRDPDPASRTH
Description: This assay relies on monitoring only the amount of hemorrhage in the lung following intratracheal administration of human neutrophil elastase (HNE). Hemorrhage is quantified by disrupting erythrocytes recovered in lung lavage fluid and comparing that to dilutions of whole hamster blood. […] Four hours after enzyme administration, the animals are killed with an overdose of pentobarbital sodium, the thorax opened and the lungs and trachea removed. The excised lungs are lavaged with three changes of 2 mL normal saline via a tracheal cannula. The recovered lavages are pooled, the volumes (about 5 mL) are recorded and the lavages stored at 4 °C until assayed. For calculation of the amount of blood in each sample, the thawed lavages and a sample of whole hamster blood are sonicated to disrupt erythrocytes and appropriately diluted into individual wells of a 96-well microtiter plate. The optical densities (OD) of the disrupted lavages and blood samples are determined at 405 nm. The (µL blood equivalents) / (mL lavage) are determined by comparing the OD of the test samples with the OD of the standard curve prepared from whole hamster blood. The total µL equivalents of blood recovered is determined by multiplying recovered lavage volume by the (µL blood equivalents) / (mL lavage) for each sample.

| SMILES | activity in an in vivo test [1] | inhibition of hemorrhage [2] |
| --- | --- | --- |
| CC(C)C(NC(=O)Cn1c(-c2ccccc2)ccc(N)c1=O)C(=O)C(F)(F)F (stereo not drawn) [Example 49, 2-(3-Amino-2-oxo-6-phenyl-1,2-dihydro-1-pyridyl)-N-(3,3,3-trifluoro1-isopropyl-2-oxopropyl)acetamide] | activity |  |
| CC(C)C(NC(=O)Cn1c(-c2ccccc2)ccc(NC(=O)C(F)(F)F)c1=O)C(=O)C(F)(F)F (stereo not drawn) [Example 167, 2-(3-trifluoroacetylamino-2-oxo-6-phenyl-1,2-dihydro-1-pyridyl)-N-(3,3,3-trifluoro-1-isopropyl-2-oxopropyl)acetamide] |  | statistically significant inhibition of hemorrhage |
| CC(C)C(NC(=O)Cn1c(-c2ccccc2)ccc(NC(=O)Cc2ccc(N)cc2)c1=O)C(=O)C(F)(F)F.Cl (stereo not drawn) [Example 159, 2-[3-(4-Aminophenylacetylamino)-2-oxo-6-phenyl-1,2-dihydro-1-pyridyl]-N-(3,3,3-trifluoro-1-isopropyl-2-oxopropyl)acetamide hydrochloride] | activity |  |
